This is an account of results in US20240376094A2, “SELECTIVE BCL-XL PROTAC COMPOUNDS AND METHODS OF USE” (Les Laboratoires Servier, priority 2021, published 2024).

One assay deals with MOLT-4 cells. Kind of assay: MOLT-4 cell viability, CTG assay. The assay is classed as cell-based. The following applies: Homo sapiens, MOLT-4, 48 h. The essentials:
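Cells grown in RPMI 1640 with 10% FBS at 37° C, 5% CO2, then exposed to compounds for 48 h (11-point 5-fold dilution, triplicates). ATP measured by CellTiter-Glo luminescence; IC50 from four-parameter fit versus control, mean of ≥2 independent experiments.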
Take `Cc1ncsc1-c1ccc([C@H](C)NC(=O)C2CC(O)CN2C(=O)C(NC(=O)CCCCCCCCCCCN2CCN(CC#Cc3ccc(OCCCc4sc(N5CCCc6c5nnc(Nc5nc7ccccc7s5)c6C)nc4C(=O)O)c(F)c3)CC2)C(C)(C)C)cc1` (stereo in doubt) [Example 31, 2-[3-(1,3-benzothiazol-2-ylamino)-4-methyl-6,7-dihydro-5H-pyrido[2,3-c]pyridazin-8-yl]-5-[3-[2-fluoro-4-[3-[4-[12-[[(1S)-1-[(2S,4R)-4-hydroxy-2-[[(1S)-1-[4-(4-methylthiazol-5-yl)phenyl]ethyl]carbamoyl]pyrrolidine-1-carbonyl]-2,2-dimethyl-propyl]amino]-12-oxo-dodecyl]piperazin-1-yl]prop-1-ynyl]phenoxy]propyl] thiazole-4-carboxylic acid]: the IC50 (usually the concentration that gives 50% inhibition) amounted to 7 nM.

For `Cc1ncsc1-c1ccc(CNC(=O)C2C[C@@H](O)CN2C(=O)C(NC(=O)CCCCCC(=O)N2CCN(CC#Cc3ccc(OCCCc4sc(N5CCCc6c5nnc(Nc5nc7ccccc7s5)c6C)nc4C(=O)O)c(F)c3)CC2)C(C)(C)C)cc1` (stereo in doubt) [Example 15, 2-[3-(1,3-benzothiazol-2-ylamino)-4-methyl-6,7-dihydro-5H-pyrido[2,3-c]pyridazin-8-yl]-5-[3-[2-fluoro-4-[3-[4-[7-[[(1S)-1-[(2S,4R)-4-hydroxy-2-[[4-(4-methylthiazol-5-yl)phenyl]methylcarbamoyl]pyrrolidine-1-carbonyl]-2,2-dimethyl-propyl]amino]-7-oxo-heptanoyl]piperazin-1-yl]prop-1-ynyl]phenoxy]propyl] thiazole-4-carboxylic acid], the IC50 came to 22.6 nM.

In the case of `Cc1ncsc1-c1ccc([C@H](C)NC(=O)[C@@H]2C[C@@H](O)CN2C(=O)[C@@H](NC(=O)CCCCCCCCN(C)CCOC23CC4(C)CC(C)(CC(Cn5ncc(-c6ccc(N7CCCc8c7nnc(Nc7nc9ccccc9s7)c8C)nc6C(=O)O)c5C)(C4)C2)C3)C(C)(C)C)cc1` [Example 5, 6-[3-(1,3-benzothiazol-2-ylamino)-4-methyl-6,7-dihydro-5H-pyrido[2,3-c]pyridazin-8-yl]-3-[1-[[3-[2-[[9-[[(1S)-1-[(2S,4R)-4-hydroxy-2-[[(1S)-1-[4-(4-methylthiazol-5-yl)phenyl]ethyl]carbamoyl]pyrrolidine-1-carbonyl]-2,2-dimethyl-propyl]amino]-9-oxo-nonyl]-methyl-amino]ethoxy]-5,7-dimethyl-1-adamantyl]methyl]-5-methyl-pyrazol-4-yl]pyridine-2-carboxylic acid], the IC50 came to 15.8 nM.

`Cc1ncsc1-c1ccc([C@H](C)NC(=O)[C@@H]2C[C@@H](O)CN2C(=O)[C@@H](NC(=O)CCCCCCCN(C)CCOC23CC4(C)CC(C)(CC(Cn5ncc(-c6ccc(N7CCCc8c7nnc(Nc7nc9ccccc9s7)c8C)nc6C(=O)O)c5C)(C4)C2)C3)C(C)(C)C)cc1` [Example 6, 6-[3-(1,3-benzothiazol-2-ylamino)-4-methyl-6,7-dihydro-5H-pyrido[2,3-c]pyridazin-8-yl]-3-[1-[[3-[2-[[8-[[(1S)-1-[(2S,4R)-4-hydroxy-2-[[(1S)-1-[4-(4-methylthiazol-5-yl)phenyl]ethyl]carbamoyl]pyrrolidine-1-carbonyl]-2,2-dimethyl-propyl]amino]-8-oxo-octyl]-methyl-amino]ethoxy]-5,7-dimethyl-1-adamantyl]methyl]-5-methyl-pyrazol-4-yl]pyridine-2-carboxylic acid] returned an IC50 of 28.7 nM.

With `Cc1ncsc1-c1ccc([C@H](C)NC(=O)[C@@H]2C[C@@H](O)CN2C(=O)[C@@H](NC(=O)CCCCCCCCCCCCCCCN(C)CCOC23CC4(C)CC(C)(CC(Cn5ncc(-c6ccc(N7CCCc8c7nnc(Nc7nc9ccccc9s7)c8C)nc6C(=O)O)c5C)(C4)C2)C3)C(C)(C)C)cc1` [Example 1, 6-[3-(1,3-benzothiazol-2-ylamino)-4-methyl-6,7-dihydro-5H-pyrido[2,3-c]pyridazin-8-yl]-3-[1-[[3-[2-[[16-[[(1S)-1-[(2S,4R)-4-hydroxy-2-[[(1S)-1-[4-(4-methylthiazol-5-yl)phenyl]ethyl]carbamoyl]pyrrolidine-1-carbonyl]-2,2-dimethyl-propyl]amino]-16-oxo-hexadecyl]-methyl-amino]ethoxy]-5,7-dimethyl-1-adamantyl]methyl]-5-methyl-pyrazol-4-yl]pyridine-2-carboxylic acid], the IC50 came out at 3.41 nM.

The target of the next assay is T1, endogenous BCL-xL (Homo sapiens, UniProt Q07817).
T1 construct: endogenous in cells; host or cells: COR-L105 (ECACC No. 92031918); NCI-H1650 (ATCC No. CRL-5883)
T1 sequence (Q07817 whole entry): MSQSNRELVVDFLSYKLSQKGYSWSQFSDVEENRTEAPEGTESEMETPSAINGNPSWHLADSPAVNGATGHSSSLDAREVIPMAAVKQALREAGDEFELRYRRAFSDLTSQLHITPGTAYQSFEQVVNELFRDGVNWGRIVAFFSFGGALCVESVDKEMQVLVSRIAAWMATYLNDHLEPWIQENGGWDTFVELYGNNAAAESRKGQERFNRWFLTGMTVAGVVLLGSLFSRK
The assay can be described thus: Degradation of endogenous BCL-xL in NCI-H1650 (ProteinSimple Jess). The following applies: NCI-H1650, dose 10 nM, 24 hours. The assay is classed as cell-based. The method, then: The BCL-xL degrader low molecular weight compounds were tested against two endogenous cancer cell lines: • COR-L105: ECACC No. 92031918 cultured in RPMI-1640+10% FBS • NCI-H1650: (ATCC No. CRL-5883 cultured in RPMI-1640+10% FBS
The ability of the BCL-xL degrader low molecular weight compounds to degrade endogenous BCL-xL was assessed using the ProteinSimple 2-40 kDa Jess Separation Module.
Cell lines were cultured in media that is optimal for their growth at 5% CO2, 37° C. in a tissue culture incubator. Prior to seeding for the degradation assay, the cells were split at least 2 days before the assay to ensure optimal growth density. On the day of seeding, adherent cells were lifted off tissue culture flasks using 0.25% trypsin. Cell viability and cell density were determined using a cell counter (Vi-Cell XR Cell Viability Analyzer, Beckman Coulter). Cells with higher than 85% viability were seeded for the assay.
The COR-L105 and the NCI-H1650 cell line were seeded in 6-well clear TC-treated multiple well plates (Costar® cat. #3516). Cells were seeded at a density of 2,000,000 cells per well in 2.5 mL of standard growth media. Plates were incubated at 5% CO2, 37° C. overnight in a tissue culture incubator. On the day of dosing, BCL-xL degrader low molecular weight compounds and a BCL-xL inhibitor control were prepared at 6× in standard growth media. […] A control well of untreated cells was also included in the study. Each drug concentration was tested in singlet. Plates were incubated at 5% CO2, 37° C. for 24 hours in a tissue culture incubator.
After 24 hours, the adherent cells were lifted off tissue culture plates using 0.25% trypsin. Standard growth media was added to quench the trypsin and centrifuged for 5 minutes at 1500 rpm. […]
Protein was quantified using a Pierce™ BCA Protein Assay Kit (ThermoFisher, cat #23225) following the manufacturer's instructions. […] A SpectraMax M Series Multi-Mode Microplate Reader was used to measure the absorbance at 562 nm. […] Only values that fell within the range of the standard curve were accepted for quantification. […]
With `Cc1ncsc1-c1ccc(CNC(=O)[C@@H]2C[C@@H](O)CN2C(=O)[C@@H](NC(=O)CCCCCCCCCCC(=O)N2CCN(CC#Cc3ccc(OCCCc4sc(N5CCCc6c5nnc(Nc5nc7ccccc7s5)c6C)nc4C(=O)O)c(F)c3)CC2)C(C)(C)C)cc1` [Example 48, 2-(3-(benzo[d]thiazol-2-ylamino)-4-methyl-6,7-dihydropyrido [2,3-c]pyridazin-8(5H)-yl)-5-(3-(2-fluoro-4-(3-(4-(12-(((S)-1-((2S,4R)-4-hydroxy-2-((4-(4-methylthiazol-5-yl)benzyl)carbamoyl)pyrrolidin-1-yl)-3,3-dimethyl-1-oxobutan-2-yl)amino)-12-oxododecanoyl)piperazin-1-yl)prop-1-yn-1-yl)phenoxy)propyl)thiazole-4-carboxylic acid], the “% BCL-xL vs. Untreated, NCI-H1650” value is on record as 1.05%.

`Cc1ncsc1-c1ccc([C@H](C)NC(=O)[C@@H]2C[C@@H](O)CN2C(=O)[C@@H](NC(=O)CCCCCCCCCCCN2CCN(CC#Cc3ccc(OCCCc4sc(N5CCCc6c5nnc(Nc5nc7ccccc7s5)c6C)nc4C(=O)O)c(F)c3)CC2)C(C)(C)C)cc1` [Example 51, 2-(3-(benzo[d]thiazol-2-ylamino)-4-methyl-6,7-dihydropyrido [2,3-c]pyridazin-8(5H)-yl)-5-(3-(2-fluoro-4-(3-(4-(12-(((S)-1-((2S,4R)-4-hydroxy-2-(((S)-1-(4-(4-methylthiazol-5-yl)phenyl)ethyl)carbamoyl)pyrrolidin-1-yl)-3,3-dimethyl-1-oxobutan-2-yl)amino)-12-oxododecyl)piperazin-1-yl)prop-1-yn-1-yl)phenoxy)propyl)thiazole-4-carboxylic acid]: the “% BCL-xL vs. Untreated, NCI-H1650” value is reported as 9.22%.

With `Cc1ncsc1-c1ccc([C@H](C)NC(=O)[C@@H]2C[C@@H](O)CN2C(=O)[C@@H](NC(=O)CCCCCCCCCCC(=O)N2CCN(CC#Cc3ccc(OCCCc4sc(N5CCCc6c5nnc(Nc5nc7ccccc7s5)c6C)nc4C(=O)O)c(F)c3)CC2)C(C)(C)C)cc1` [Example 46, 2-(3-(benzo[d]thiazol-2-ylamino)-4-methyl-6,7-dihydropyrido [2,3-c]pyridazin-8(5H)-yl)-5-(3-(2-fluoro-4-(3-(4-(12-(((S)-1-((2S,4R)-4-hydroxy-2-(((S)-1-(4-(4-methylthiazol-5-yl)phenyl)ethyl)carbamoyl)pyrrolidin-1-yl)-3,3-dimethyl-1-oxobutan-2-yl)amino)-12-oxododecanoyl)piperazin-1-yl)prop-1-yn-1-yl)phenoxy)propyl)thiazole-4-carboxylic acid], the “% BCL-xL vs. Untreated, NCI-H1650” value is on record as 16.23%.
